Assay results from patent US6653300B2, “Pyrazole compounds useful as protein kinase inhibitors” (Vertex Pharmaceuticals Incorporated, priority 2000, dated 2003).

Key:
[1] = target: T1, Aurora-2 (Homo sapiens, UniProt O14965); assay: Ki determination for the inhibition of Aurora-2 (coupled enzyme assay); type: biochemical; details: 70 nM Aurora-2, 30° C.
T1 sequence (O14965 1-403): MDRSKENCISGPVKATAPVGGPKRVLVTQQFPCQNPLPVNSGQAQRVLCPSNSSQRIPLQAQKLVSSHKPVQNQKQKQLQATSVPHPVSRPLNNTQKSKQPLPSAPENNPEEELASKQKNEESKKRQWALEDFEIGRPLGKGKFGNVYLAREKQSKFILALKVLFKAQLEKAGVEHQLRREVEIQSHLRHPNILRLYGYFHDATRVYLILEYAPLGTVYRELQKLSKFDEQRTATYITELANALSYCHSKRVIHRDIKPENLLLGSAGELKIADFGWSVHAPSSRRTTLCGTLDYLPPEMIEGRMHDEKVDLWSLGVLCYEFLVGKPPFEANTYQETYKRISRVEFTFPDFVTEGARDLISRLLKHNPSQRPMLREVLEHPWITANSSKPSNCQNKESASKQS
Method in brief: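 Ki came from reaction rates plotted against inhibitor concentration, with rates taken as A340 decrease over 5 min at 30° C. Enzyme (70 nM final) was added after 10 min compound preincubation; stock buffer held […], 800 μM LRRASLG, PK/LDH coupling, pH 7.5.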

[2] = target: T2, human Src kinase (Homo sapiens, UniProt P12931); assay: SRC inhibition assay (radioactivity-based or spectrophotometric assay); type: biochemical; details: recombinant human Src kinase; assay A or B; read-out: Ki value on SRC
T2 construct: full length recombinant human Src kinase (from Upstate Biotechnology, cat. no. 14-117); purchased Upstate Biotechnology 14-117; host or cells: baculo viral cells
Method in brief: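 Full-length recombinant human Src from baculovirus was used. In the radiometric format, enzyme was preincubated 10 min at 30 °C, the reaction was started with ^33P-ATP and run 20 min, then TCA-quenched and filter-counted. The alternative format monitored poly Glu-Tyr phosphorylation by NADH-coupled A340 rate. Ki came from competitive-inhibition fits.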

[3] = target: activated ERK2 (Homo sapiens, UniProt P28482); assay: ERK inhibition assay (spectrophotometric coupled-enzyme assay); type: biochemical; details: 10 nM activated ERK2, 65 μM ATP, 30° C.; read-out: Ki values for ERK-2
Procedure: Compounds were assayed for the inhibition of ERK2 by a spectrophotometric coupled-enzyme assay (Fox et al (1998) Protein Sci 7, 2249).

[4] = target: AKT-3 (Homo sapiens, UniProt Q9Y243); assay: AKT inhibition assay (coupled enzyme assay); type: biochemical; details: 45 nM AKT, 170 μM ATP, 30° C.
Procedure: Compounds were screened for their ability to inhibit AKT using a standard coupled enzyme assay (Fox et al., Protein Sci., (1998) 7, 2249). Assays were carried out in a mixture of 100 mM HEPES 7.5, 10 mM MgCl2, 25 mM NaCl, 1 mM DTT and 1.5% DMSO. Final substrate concentrations in the assay were 170 μM ATP (Sigma Chemicals) and 200 μM peptide (RPRAATF, American Peptide, Sunnyvale, Calif.). Assays were carried out at 30° C. and 45 nM AKT. Final concentrations of the components of the coupled enzyme system were 2.5 mM phosphoenolpyruvate, 300 μM NADH, 30 μg/ML pyruvate kinase and 10 μg/ml lactate dehydrogenase.
An assay stock buffer solution was prepared containing all of the reagents listed above, with the exception of AKT, DTT, and the test compound of interest. 56 μl of the stock solution was placed in a 384 well plate followed by addition of 1 μl of 2 mM DMSO stock containing the test compound (final compound concentration 30 μM). The plate was preincubated for about 10 minutes at 30° C. and the reaction initiated by addition of 10 μl of enzyme (final concentration 45 nM) and 1 mM DTT. Rates of reaction were obtained using a BioRad Ultramark plate reader (Hercules, Calif.) over a 5 minute read time at 30° C.

[5] = target: T3, GSK-3β (AA 1-420) (Homo sapiens, UniProt P49841); assay: Ki determination for the inhibition of GSK-3 (coupled enzyme system); type: biochemical; details: 20 μM ATP, 20 nM GSK-3β, 30° C.
T3 construct: GSK-3β (AA 1-420)
Method in brief: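 GSK-3β (AA 1-420, 20 nM) was run in a pyruvate kinase/LDH-coupled NADH assay in 100 mM HEPES pH 7.5, 10 mM MgCl2, 25 mM NaCl, 1 mM DTT, 1.5% DMSO, with 300 μM phosphopeptide substrate. Compound (0.002–30 μM) was preincubated 10 min at 30° C, then 20 μM ATP was added.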

[6] = target: CDK-2/Cyclin A (Homo sapiens, UniProt P24941); assay: CDK-2 inhibition assay (coupled enzyme assay); type: biochemical; details: 25 nM CDK-2/Cyclin A, 30° C.
Procedure: Compounds were screened in the following manner for their ability to inhibit CDK-2 using a standard coupled enzyme assay (Fox et al (1998) Protein Sci 7, 2249).
To an assay stock buffer solution containing 0.1M HEPES 7.5, 10 mM MgCl2, 1 mM DTT, 25 mM NaCl, 2.5 mM phosphoenolpyruvate, […], 30 mg/ml pyruvate kinase, 10 mg/ml lactate dehydrogenase, 100 mM ATP, and 100 μM peptide ([…], American Peptide, Sunnyvale, Calif.) was added a DMSO solution of a compound of the present invention to a final concentration of 30 μM. The resulting mixture was incubated at 30° C. for 10 min.
The reaction was initiated by the addition of 10 μL of CDK-2/Cyclin A stock solution to give a final concentration of 25 nM in the assay. The rates of reaction were obtained by monitoring absorbance at 340 nm over a 5-minute read time at 30° C. using a BioRad Ultramark plate reader (Hercules, Calif.). The Ki values were determined from the rate data as a function of inhibitor concentration.

T3 sequence (P49841 whole entry, the tested form may be a part): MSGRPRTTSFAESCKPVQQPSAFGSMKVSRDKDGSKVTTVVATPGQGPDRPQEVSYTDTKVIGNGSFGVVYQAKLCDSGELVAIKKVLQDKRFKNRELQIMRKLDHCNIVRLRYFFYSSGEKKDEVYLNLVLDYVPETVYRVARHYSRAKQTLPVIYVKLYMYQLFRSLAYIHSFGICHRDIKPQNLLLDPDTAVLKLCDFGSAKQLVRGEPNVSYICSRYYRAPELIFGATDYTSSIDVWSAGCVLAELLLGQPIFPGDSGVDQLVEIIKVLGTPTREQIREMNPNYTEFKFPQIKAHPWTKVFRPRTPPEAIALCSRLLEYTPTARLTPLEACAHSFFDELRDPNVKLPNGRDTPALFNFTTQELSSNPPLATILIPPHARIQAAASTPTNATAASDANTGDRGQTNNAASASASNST
Chain of activated ERK2 (P28482 whole entry): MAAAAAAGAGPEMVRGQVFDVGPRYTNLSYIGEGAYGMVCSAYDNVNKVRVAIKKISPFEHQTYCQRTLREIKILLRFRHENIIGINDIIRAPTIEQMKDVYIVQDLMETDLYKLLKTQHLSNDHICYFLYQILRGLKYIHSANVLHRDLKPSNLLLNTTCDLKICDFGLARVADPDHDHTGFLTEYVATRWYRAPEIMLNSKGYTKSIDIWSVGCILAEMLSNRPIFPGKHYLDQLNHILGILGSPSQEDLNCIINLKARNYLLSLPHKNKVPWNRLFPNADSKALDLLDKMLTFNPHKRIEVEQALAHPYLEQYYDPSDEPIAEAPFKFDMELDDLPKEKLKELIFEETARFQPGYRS
Chain of AKT-3 (Q9Y243 whole entry, species assumed): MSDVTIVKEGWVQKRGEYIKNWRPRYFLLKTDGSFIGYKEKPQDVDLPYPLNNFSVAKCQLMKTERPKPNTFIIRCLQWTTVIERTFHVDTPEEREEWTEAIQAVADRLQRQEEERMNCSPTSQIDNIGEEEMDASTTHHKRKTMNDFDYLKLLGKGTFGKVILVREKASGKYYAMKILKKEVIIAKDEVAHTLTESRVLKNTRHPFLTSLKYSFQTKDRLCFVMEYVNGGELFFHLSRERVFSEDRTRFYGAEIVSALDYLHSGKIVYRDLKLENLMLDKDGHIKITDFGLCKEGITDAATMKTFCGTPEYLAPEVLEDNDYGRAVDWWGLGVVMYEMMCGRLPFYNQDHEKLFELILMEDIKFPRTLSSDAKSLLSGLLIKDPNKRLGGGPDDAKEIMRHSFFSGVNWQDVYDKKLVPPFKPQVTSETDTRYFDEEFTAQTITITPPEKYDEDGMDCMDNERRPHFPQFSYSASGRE
T2 sequence (P12931 whole entry): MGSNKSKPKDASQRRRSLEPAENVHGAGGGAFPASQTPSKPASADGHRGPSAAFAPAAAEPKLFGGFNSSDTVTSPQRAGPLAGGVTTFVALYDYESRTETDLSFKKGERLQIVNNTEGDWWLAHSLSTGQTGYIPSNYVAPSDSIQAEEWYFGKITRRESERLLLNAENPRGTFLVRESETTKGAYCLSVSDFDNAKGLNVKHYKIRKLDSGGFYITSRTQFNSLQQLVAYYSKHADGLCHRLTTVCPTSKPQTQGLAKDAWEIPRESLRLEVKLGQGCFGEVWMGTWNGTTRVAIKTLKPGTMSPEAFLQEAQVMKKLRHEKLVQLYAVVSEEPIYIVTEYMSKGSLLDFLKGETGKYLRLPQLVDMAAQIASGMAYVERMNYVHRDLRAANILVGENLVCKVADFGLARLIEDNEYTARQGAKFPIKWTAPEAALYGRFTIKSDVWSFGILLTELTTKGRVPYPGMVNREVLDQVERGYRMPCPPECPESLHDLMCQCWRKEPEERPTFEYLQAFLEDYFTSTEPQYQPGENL

SMILES	Ki [1] [nM]	Ki [2] [nM]	Ki [3] [nM]	Ki [4] [nM]	melting point [°C]	Ki [5] [nM]	Ki [6] [nM]
c1ccc(Nc2nc(Nc3cc(C4CC4)[nH]n3)c3ccccc3n2)cc1 [IIc-18, (5-Cyclopropyl-2H-pyrazol-3-yl)-(2-phenylamino-quinazolin-4-yl)-amine]	< 100	< 100	1000 to 20000	1000 to 20000	234	< 100	–
Cc1cc(Nc2nc(Nc3ccc(CC#N)cc3)nc3ccccc23)n[nH]1 [IIc-15, [2-(4-Cyanomethylphenylamino)-quinazolin-4-yl]-(5-methyl-2H-pyrazol-3-yl)-amine]	< 100	< 100	< 1000	–	> 250	< 100	< 1000
CC(=O)Nc1ccc(Sc2nc(Nc3cc(C4CC4)[nH]n3)c3ccccc3n2)cc1 [IIa-36, [2-(4-Acetamido-phenylsulfanyl)-quinazolin-4-yl]-(5-cyclopropyl-2H-pyrazol-3-yl)-amine]	–	–	1000 to 20000	–	–	–	< 1000
Cc1cc(Nc2nc(Nc3ccc4ncsc4c3)nc3ccccc23)n[nH]1 [IIc-53, [2-(Benzothiazol-6-ylamino)-quinazolin-4-yl]-(5-methyl-2H-pyrazol-3-yl)-amine]	< 100	–	< 1000	1000 to 20000	236 to 239	< 100	< 1000
CCc1ccc(Nc2nc(Nc3cc(C4CC4)[nH]n3)c3ccccc3n2)cc1 [IIc-25, (5-Cyclopropyl-2H-pyrazol-3-yl)-[2-(4-ethylphenylamino)-quinazolin-4-yl]-amine]	< 100	–	1000 to 20000	1000 to 20000	250 to 251	< 100	< 1000
OCCc1ccc(Nc2nc(Nc3cc(C4CC4)[nH]n3)c3ccccc3n2)cc1 [IIc-27, (5-Cyclopropyl-2H-pyrazol-3-yl)-{2-[4-(2-hydroxyethyl)phenylamino]-quinazolin-4-yl}-amine]	< 100	–	< 1000	1000 to 20000	255 to 256	< 100	< 1000
N#CCc1ccc(Nc2nc(Nc3cc(C4CC4)[nH]n3)cc(-c3ccccc3)n2)cc1 [IIIc-4, [2-(4-cyanomethylphenylamino)-6-phenyl-pyrimidin-4-yl]-(5-cyclopropyl-2H-pyrazol-3-yl)-amine]	–	–	< 1000	–	294 to 297	–	< 1000
